Source: patent US5527820A, “Antibiotics having immunosuppressive activity, delaminomycins and processes for the production of the same” (priority 1992, dated 1996)
Converted amounts (≈) assume the structure as drawn.

What was measured:
Piricularia oryzae = test: microbe, parasite or virus in culture; assay type: cell-based; details: 42 h
Mouse melanoma B-16 = test: Inhibitory activity on proliferation of cancer cells; assay type: cell-based; details: B16
Aspergillus niger F-16 = test: MIC, agar plate dilution method; assay type: cell-based; details: F16, 27° C., 42 hours, nutrient agar containing glucose
[1] = test system: delayed-type hypersensitivity (DTH); test: Suppressive effect on delayed-type hypersensitivity (DTH) in mouse, oral; assay type: in vivo, mouse (CDF1); details: oral once a day, 0~4th day
Procedure: (§1) CDF1 mice were immunized by intravenously injecting sheep red blood cells (10^5 cells/mouse). On the 4th day after the immunization, sheep red blood cells (10^8 cells/mouse) were subcutaneously injected into the footpad of mice for the elicitation to cause a delayed-type hypersensitivity. Test compound was orally administered to the mice once a day from the 0 th day to the 4 th day after the immunization. On the 5th day after the elicitation, the thickness of the mouse footpad was measured to estimate the suppressive effect of the test compound on DTH. The suppressive effect of the test compound was evaluated in terms of the inhibition rate (%) as calculated according to the following equation:
(§2) Inhibition rate (%)=100-(T/C×100)
wherein T denotes the thickness of the footpad when the test compound was administered, but C denotes the thickness of the footpad when no test compounnd was administered.

Gram-positive bacteria = test: Antibacterial activity to Gram-positive bacteria; assay type: cell-based; details: result in words
Text: (§3) Delaminomycins A, B, C, A2, B2 and C2 according to this invention further have an antibacterial activity against a variety of bacteria. The minimum growth inhibitory concentrations (MIC) (μg/ml) of the novel antibiotics of this invention on various bacteria and fungi as measured by the agar plate dilution method are shown in Table 5a, Table 5b, Table 5c and Table 5d below.

[2] = test system: spleen cells (T cells activated by Concanavalin A); test: Inhibitory activity against blastogenesis and proliferation of spleen cells caused by mitogen (Con A); assay type: cell-based, mouse (CDF1)
Human Lymphoma Jurkat = test: Inhibitory activity on proliferation of cancer cells; assay type: cell-based
Cochliobolus miyabeanus = test: MIC, agar plate dilution method; assay type: cell-based; details: Bipolaris oryzae; 27° C., 42 hours, nutrient agar containing glucose
Procedure: as §3
(§4) Evaluated after culturing at 27° C. for 42 hours in nutrient agar
(§5) medium containing glucose.

Xanthomonas citri = test: MIC, agar plate dilution method; assay type: cell-based; details: 27° C., 42 hours, nutrient agar containing glucose
Procedure: as §3, §4, §5

[3] = test system: Saccharomyces cerevisiae F-7; test: MIC, agar plate dilution method; assay type: cell-based; details: F7, 27° C., 42 hours, nutrient agar containing glucose
Candida albicans 3147 = test: MIC, agar plate dilution method; assay type: cell-based; details: 27° C., 42 hours, nutrient agar containing glucose
Pellicularia sasakii = test: MIC, agar plate dilution method; assay type: cell-based; details: 27° C., 42 hours, nutrient agar containing glucose
[4] = test system: Cryptococcus neoformans F-10; test: MIC, agar plate dilution method; assay type: cell-based; details: F10, 27° C., 42 hours, nutrient agar containing glucose
Candida Yu-1200 = test: MIC, agar plate dilution method; assay type: cell-based; details: YU1200, 27° C., 42 hours, nutrient agar containing glucose
[5] = test system: delayed-type hypersensitivity (DTH); test: Suppressive effect on delayed-type hypersensitivity (DTH) in mouse, intraperitoneal; assay type: in vivo, mouse (CDF1); details: intraperitoneal once a day, 0-4th day
Text: Suppressive effect of delaminomycins on delayed-type hypersensitivity (DTH) in mouse
as §1, with “hypersensitivity (DTH).” for “hypersensitivity.”, “intraperitoneally” for “orally”, “0th” for “0 th”, “4th” for “the 4 th”, “elicitation” for “elicitation,”, “the DTH response.” for “DTH.”
as §2
wherein T denotes the thickness of the footpad when administering the test compound, but C denotes the thickness of the footpad when administering no test compound.

[6] = test system: nylon wool-passed cells of spleen cells (responder cell; T cells); test: Inhibitory activity to the mixed lymphocyte culture reaction; assay type: cell-based, rat (Fischer F344 responder; WKY stimulator)
Mouse leukemia L-1210 = test: Inhibitory activity on proliferation of cancer cells; assay type: cell-based; details: L1210
Mouse leukemia EL-4 = test: as above; assay type: cell-based; details: EL4
[7] = in vivo
Candida tropicalis F-1 = test: MIC, agar plate dilution method; assay type: cell-based; details: F1, 27° C., 42 hours, nutrient agar containing glucose
[8] = test system: Trichophyton mentagrophytes F-15 (833); test: MIC, agar plate dilution method; assay type: cell-based; details: 27° C., 42 hours, nutrient agar containing glucose
[9] = test system: Candida pseudotropicalis F-2; test: MIC, agar plate dilution method; assay type: cell-based; details: Kluyveromyces marxianus, F2; 27° C., 42 hours, nutrient agar containing glucose
[10] = test system: Trichophyton asteroides 429; test: MIC, agar plate dilution method; assay type: cell-based; details: 27° C., 42 hours, nutrient agar containing glucose
Candida krusei F-5 = test: MIC, agar plate dilution method; assay type: cell-based; details: Pichia kudriavzevii, F5; 27° C., 42 hours, nutrient agar containing glucose
Mouse leukemia P388D1 = test: Inhibitory activity on proliferation of cancer cells; assay type: cell-based

**Q.** For CCC(O)C(C)/C=C/C=C/C1CC2C=CC3CC(C)CC(C)C3C2(C)C(=O)C12C(=O)NC(O)C2=O (stereo not drawn) [Delaminomycin A2], which MIC (Piricularia oryzae) is on record?
**A.** > 100 µg/mL

**Q.** What about the IC50 (Mouse melanoma B-16) of the same molecule?
**A.** 8.3 µg/mL (≈ 17.2 µM)

**Q.** And the MIC (Aspergillus niger F-16)?
**A.** > 100 µg/mL

**Q.** And the “Inhibition rate (DTH footpad thickness)” value ([1]; 0.5 mg/mouse)?
**A.** 7.7%

**Q.** And the “Inhibition rate (DTH footpad thickness)” value ([1]; 2.0 mg/mouse)?
**A.** 23.4%

**Q.** And the “Inhibition rate (DTH footpad thickness)” value ([1]; 8.0 mg/mouse)?
**A.** 36.1%

**Q.** And the “antibacterial activity to Gram-positive bacteria” value (Gram-positive bacteria)?
**A.** antibacterial activity to Gram-positive bacteria

**Q.** What about the IC50 ([2]; Mus musculus, T-cell, read-out: IC50 (inhibition of blastogenesis and proliferation of spleen lymphocyte caused by Con A)) of the same molecule?
**A.** 0.78 µg/mL (≈ 1.61 µM)

**Q.** And the inhibition at 0.2 µg/mL ([2]; Mus musculus, T-cell, 0.20 μg/ml test compound, read-out: Inhibition rate)?
**A.** 1.5%

**Q.** And the inhibition at 0.78 µg/mL ([2]; Mus musculus, T-cell, 0.78 μg/ml test compound, read-out: Inhibition rate)?
**A.** 50.5%

**Q.** And the inhibition at 3.1 µg/mL ([2]; Mus musculus, T-cell, 3.1 μg/ml test compound, read-out: Inhibition rate)?
**A.** 76.3%

**Q.** And the inhibition at 12.5 µg/mL ([2]; Mus musculus, T-cell, 12.5 μg/ml test compound, read-out: Inhibition rate)?
**A.** 95.1%

**Q.** What about the inhibition at 50 µg/mL ([2]; Mus musculus, T-cell, 50 μg/ml test compound, read-out: Inhibition rate) of the same molecule?
**A.** 96.5%

**Q.** What about the “activity inhibitory to the reaction of proliferation of mouse spleen cells activated with Concanavalin A” value ([2]; in vitro, result in words) of the same molecule?
**A.** exhibit an activity inhibitory to the reaction of proliferation of mouse spleen cells

**Q.** And the IC50 (Human Lymphoma Jurkat)?
**A.** 5.9 µg/mL (≈ 12.2 µM)

**Q.** What about the MIC (Cochliobolus miyabeanus) of the same molecule?
**A.** > 100 µg/mL

**Q.** What about the MIC (Xanthomonas citri) of the same molecule?
**A.** > 100 µg/mL

**Q.** What about the MIC [3] of the same molecule?
**A.** > 100 µg/mL

**Q.** What about the MIC (Candida albicans 3147) of the same molecule?
**A.** > 100 µg/mL

**Q.** What about the MIC (Pellicularia sasakii) of the same molecule?
**A.** > 50 µg/mL

**Q.** And the MIC [4]?
**A.** > 100 µg/mL

**Q.** And the MIC (Candida Yu-1200)?
**A.** > 100 µg/mL

**Q.** And the “Inhibition rate (DTH footpad thickness)” value ([5]; 15.6 μg/mouse)?
**A.** 1.9%

**Q.** And the “Inhibition rate (DTH footpad thickness)” value ([5]; 62.5 μg/mouse)?
**A.** 3.5%

**Q.** What about the “Inhibition rate (DTH footpad thickness)” value ([5]; 250 μg/mouse) of the same molecule?
**A.** 26.6%

**Q.** What about the “Inhibition rate (DTH footpad thickness)” value ([5]; 1000 μg/mouse) of the same molecule?
**A.** 99.3%

**Q.** What about the inhibition at 0.1 µg/mL ([6]; Rattus norvegicus, T-cell, 0.10 μg/ml test compound, read-out: Inhibition rate) of the same molecule?
**A.** 16%

**Q.** And the inhibition at 0.39 µg/mL ([6]; Rattus norvegicus, T-cell, 0.39 μg/ml test compound, read-out: Inhibition rate)?
**A.** 5%

**Q.** And the inhibition at 1.56 µg/mL ([6]; Rattus norvegicus, T-cell, 1.56 μg/ml test compound, read-out: Inhibition rate)?
**A.** 0%

**Q.** And the inhibition at 25 µg/mL ([6]; Rattus norvegicus, T-cell, 25 μg/ml test compound, read-out: Inhibition rate)?
**A.** 94%

**Q.** And the inhibition at 100 µg/mL ([6]; Rattus norvegicus, T-cell, 100 μg/ml test compound, read-out: Inhibition rate)?
**A.** 56%

**Q.** And the IC50 ([6]; Rattus norvegicus, T-cell, 120 hours, 3H-thymidine incorporation, read-out: IC50 (inhibition of mixed lymphocyte culture reaction))?
**A.** 13.9 µg/mL (≈ 28.7 µM)

**Q.** What about the “activity to inhibit the proliferation of the T cells (responder cell) in mixed lymphocyte culture reaction” value ([6]; in vitro, result in words) of the same molecule?
**A.** have an activity to inhibit the reaction of proliferation of the T cells

**Q.** And the IC50 (Mouse leukemia L-1210)?
**A.** 3.7 µg/mL (≈ 7.65 µM)

**Q.** What about the IC50 (Mouse leukemia EL-4) of the same molecule?
**A.** 4.1 µg/mL (≈ 8.48 µM)

**Q.** What about the “absorption into the digestive tracts / oral absorption” value [7] of the same molecule?
**A.** hardly absorbed into the digestive tracts

**Q.** And the MIC (Candida tropicalis F-1)?
**A.** > 100 µg/mL

**Q.** What about the MIC [8] of the same molecule?
**A.** > 100 µg/mL

**Q.** What about the MIC [9] of the same molecule?
**A.** > 100 µg/mL

**Q.** What about the MIC [10] of the same molecule?
**A.** > 100 µg/mL

**Q.** What about the MIC (Candida krusei F-5) of the same molecule?
**A.** > 100 µg/mL

**Q.** What about the IC50 (Mouse leukemia P388D1) of the same molecule?
**A.** 10 µg/mL (≈ 20.7 µM)
